One may read the melting point as the temperature of the solid-liquid transition. Compound `Cc1nccn1-c1ccc(COc2cccc(C3(C(N)=O)CCCC3)c2)cc1` gave a melting point of 163 to 164 °C.
As for `CC(=O)c1cc2c(cc1NC(=O)c1cccc3ccccc13)OCO2`, the figure is 143 to 144 °C; as for `COc1cccc2c(Nc3ccccc3C)c(C(=O)C3CCCCC3)cnc12`, 115 to 117 °C.
Under `CCCCCCCCCCCCNC(=S)NCCCCCCCCCCCC` stands 75 to 78 °C; under `COc1cc2c(cc1OC)NC(=O)N(CCCN(C)CCCS(=O)(=O)c1ccccc1)CC2`, 118 to 121 °C.
Under `COc1ccccc1NC(C(N)=O)c1c(Cl)cccc1Cl` (stereo not given) stands 192 °C; under `O=C(Oc1ccccc1)c1ccc(O)cc1O`, 135 to 137 °C.
Consider `CN1CC(CCCl)Oc2ncc(Cl)cc2C1=O` (stereo not given), for which the melting point is 78 to 79 °C.
As for `Nc1ccc(-c2ccccc2)cc1[N+](=O)[O-]`, the figure is 163 to 165 °C.
As for `COc1ccc(-c2nnc3cc(-c4ccccc4)c(OCc4ncn(C)n4)nn23)cc1`, the figure is 205 to 206 °C; as for `CCCC(=O)Nc1n[nH]c2c(F)c(N3CCOCC3)c(Br)cc12`, 240 °C; as for `O=C1NCC(=O)c2ncn(C3OC(COC(=O)c4ccccc4)C(OC(=O)c4ccccc4)C3OC(=O)c3ccccc3)c2N1` (stereo not given), 252 °C.
The compound `CN(c1cccc2cc(-c3nccs3)[nH]c12)S(=O)(=O)c1ccsc1CSCC(=O)O` showed a melting point of 193 °C.
Under `CSc1ccc(CCl)cc1C(F)(F)F` stands 65 to 66 °C.
Under `CCN(c1cc(C(=O)OC)c(O)c2ncc(Cc3ccc(F)cc3)cc12)S(C)(=O)=O` stands 149 to 150 °C.
`COc1cc(OC)cc(N2CCN(C(=O)N(CC(=O)O)c3cc(C)c(C)cc3OC)CC2)c1`: the melting point fell in the range of 188 to 189 °C.
Under `Cc1nn(-c2ccc(C(F)(F)F)cn2)cc1CCCOc1ccccc1CC(=O)O` stands 128 to 129 °C.
`CCOC(=O)c1cn(C)c2sc(CN3CCOCC3)c(C)c2c1=O` returned a melting point of 172 to 173 °C.
As for `C=C(CO)C(C(=O)OC(c1ccccc1)c1ccccc1)N1C(=O)C2N=C(Cc3ccccc3)OC21` (stereo not given), the figure is 40 to 55 °C; as for `CCOC(=O)C(C)(C)Cc1cccnc1`, 64 to 66 °C; as for `COC(=O)c1c(Cl)c(-c2cccc(C(F)(F)F)c2)nn1C`, 97 to 98 °C.
For `O=CC[C@@H](O)[C@H](O)[C@H](O)CO`, the melting point was 146 to 149 °C.
Under `CNc1nc(-c2cccc(NC(=O)c3cccnc3N3CCCC3)c2)c2cc(OC)c(OC)cc2n1` stands 135 to 137 °C; under `COc1nc2ccccn2c(=O)c1-c1ccc(NC2CCN(C(=O)OC(C)(C)C)C2)cc1` (stereo not given), 102 to 104 °C; under `Cc1c(-c2ccccc2)n(-c2c(F)cccc2F)c(-c2ccccc2)cc1=O`, 219 to 221 °C.
The compound `COC(=O)c1ccc(Oc2ccc(N)cc2C(=O)OC)cc1` showed a melting point of 144 to 146 °C.
On to `Cc1ccc(Cc2ccc(-c3ccccc3)cc2)cc1`, for which the melting point is 87 °C.
In turn, `CC(C)(C)c1ccc2c(c1)C=C(C(=O)O)C(C(F)(F)F)O2` (stereo not given) registered a melting point of 171 to 173 °C.
Under `COC(=C[N+](=O)[O-])NCc1cccnc1` stands 129 to 130 °C.
As for `CCCc1c(OCCCOc2cc(O)c(-c3cocn3)cc2CC)cccc1Oc1ccccc1C(=O)O`, the figure is 60 to 61 °C.
Under `CCN[C@@H]1CCCC[C@H]1NS(=O)(=O)c1ccc(C)cc1` (relative stereo) stands 112 to 114 °C; under `CC(C)(C)NC(=O)CP(=O)(O)O`, 163 to 165 °C.
For the compound `NC(=O)CCCCCc1nccc(NC(N)=NCC(F)(F)F)n1`, the melting point was in the range of 179 to 181 °C.
Regarding `CCOC(=O)/C=C/c1cnc(Cl)nc1`, the melting point was in the range of 125 to 127 °C.
Under `O=C(Nc1ccc(CN2C(=O)[C@H]3CCC[C@H]3N(C(=O)CCl)c3ccccc32)cc1)Oc1ccccc1` (relative stereo) stands 207 to 210 °C.

These data come from a melting point compilation (Tetko et al.; mined from patent text by program, amines drawn as free bases though some values may be those of a salt).
